Experimental data from patent US12479832B2, “Liver targeting drug, pharmaceutical composition and use thereof” (priority 2019, dated 2025).
Values joined by “and” are separate entries in the source; they are usually repeats but may differ in a detail not shown here. Identical values can stand only once. “Also recorded” adds a separate entry of the source. Values belong to the compound of their own block, whether it stands above or below them.

How the values were obtained:
[1] = Pharmacokinetic study: Birinapant in plasma and liver after i.v. Birinapant or I-5-S in rats; conditions: rat, in vivo; for half-life: Birinapant measured after i.v. Birinapant 5 mg/kg, rats
Description: 1. Formulation of preparation and dosing: An appropriate amount of the test sample was precisely weighed, and mixed with an appropriate volume of a solvent (5% DMSO/5% Solutol/90% water) to obtain a clear solution or a homogeneous suspension. The preparation was administered to animals within 4 hours after formulation. The dosage formulation would be administered […] in accordance with facility standard operating procedures. The dosage volume would be determined by the body weights of the animals collected on the morning of administering. 2. Blood collection: Blood (approx. 0.2 ml per point in time) would be drawn each time from the jugular vein of every animal. All blood samples would be transferred to pre-cooled commercial EDTA-K2 test tubes, and kept on wet ice until they were centrifuged. 3. Plasma processing: Blood samples would be centrifuged (3200 rpm, 10 min) at approximately 4° C. Plasma was collected separately and transferred to pre-labeled PP tubes in wet ice at each point in time, and then immediately precipitated by ACN (6 IS) (the ratio of plasma:ACN was 1:4). Centrifugation (10 min, 12,000 rpm) was carried out again to obtain a supernatant. The supernatant was quickly frozen on dry ice and kept at -70±10° C. before LC/MS/MS analysis. 4. Liver processing: Liver tissues were collected at each point in time, washed twice with pre-cooled deionized water, and dried with filter paper. Liver tissues were immediately homogenized with 10-times volume of a methanol-water solution (1:2, v/v). After homogenization, a portion of liver tissue homogenate (e.g., 200 μL of homogenate) was immediately measured. After precipitated on wet ice, the samples were centrifuged, and a supernatant was collected and stored in a refrigerator at -70±10° C. before LC-MS/MS analysis. From the remaining liver homogenate, 800 μL of the homogenate was measured as a spare. […] After the solution of compound Birinapant was intravenously injected into rats, the concentrations of the active compound Birinapant in the rats were determined in the plasma and liver, respectively (see Table 1). After the solution of compound […] was intravenously injected into rats, the concentrations of the active compound Birinapant in the rats were determined in the plasma and liver, respectively (see Table 2).

[2] = cited from earlier work
hepatitis B virus = conditions: animal models; cited from earlier work
hepatocellular carcinoma = conditions: cited from earlier work
[3] = Pharmacokinetic test of Compound A or B given orally or intravenously to rats (plasma and liver); type: in vivo; conditions: administered orally or intravenously
Description: To address the above-mentioned problems, the inventors have conducted intensive researches on analogues of Birinapant in the hope of reducing the toxic and side effects on the circulating system while maintaining or improving the therapeutic effect. […] Under the same conditions as described above, after rats were orally or intravenously injected with a solution of Compound A or B, the concentrations of Compound A or B and drug Birinapant in rats were measured in plasma and liver, respectively. […] Therefore, such prodrugs would have no value of application for Birinapant.

SMILES: CC[C@H](NC(=O)[C@H](C)NC)C(=O)N1C[C@@H](O)C[C@H]1Cc1c(-c2[nH]c3cc(F)ccc3c2C[C@@H]2C[C@H](O)CN2C(=O)[C@H](CC)NC(=O)[C@H](C)NC)[nH]c2cc(F)ccc12 [Birinapant]
C0 ([1]; iv): 3470 ng/mL | AUC0-24 ([1]; iv, 5 mg/kg): 40566 ng·h/g | AUC0-inf ([1]; iv, 5 mg/kg): 76641 ng·h/g | AUC0-last ([1]; iv, 5 mg/kg): 66712 ng·h/g | AUC(0-inf) ([1]; iv, 5 mg/kg): 1090 ng·h/mL | C0 ([1]; iv, 5 mg/kg): 3470 ng/mL | Cmax ([1]; iv, 5 mg/kg): 3470 ng/mL and 4280 ng/g | Kp ([1]; iv, 5 mg/kg): 64 | Tmax ([1]; iv, 5 mg/kg): 0.25 h | Vd ([1]; iv, 5 mg/kg): 36.3 L/kg | clearance ([1]; iv, 5 mg/kg): 76.3 mL/min/kg | AUC(0-t) ([1]; iv, 5 mg/kg, AUC0-24): 967 ng·h/mL | AUC(0-t) ([1]; iv, 5 mg/kg, AUC0-last): 1040 ng·h/mL | half-life ([1]; iv, 5 mg/kg, liver): 22.9 h | half-life ([1]; iv, 5 mg/kg, plasma): 14.6 h | side effect in patients ([2]; patients, high doses): paralysis of facial muscles | safe dose ([2]; per week or twice weekly, cancer clinical trials): 17 mg/M2 | Dose Limited Toxicity ([2]; twice weekly, limited by paralysis of facial muscles, cancer clinical trials): 22 mg/M2 | inhibition of hepatitis B virus, particularly replication of HBsAg (hepatitis B virus): effective in inhibiting hepatitis B virus | survival in dosed mice (hepatocellular carcinoma): significantly prolonged

excreted and recovered [3]: 100%
SMILES: CC[C@H](NC(=O)[C@H](C)N(C)C(=O)OCc1ccccc1)C(=O)N1C[C@@H](O)C[C@H]1Cc1c(-c2[nH]c3cc(F)ccc3c2C[C@@H]2C[C@H](O)CN2C(=O)[C@H](CC)NC(=O)[C@H](C)N(C)C(=O)OCc2ccccc2)[nH]c2cc(F)ccc12 [Compound A]
degradation by in vivo esterases to release the active drug Birinapant [3]: have not been degraded at all; also recorded: could not be degraded by in vivo esterase at all

excreted and recovered [3]: 100%
SMILES: CCCCCOC(=O)N(C)[C@@H](C)C(=O)N[C@@H](CC)C(=O)N1C[C@@H](O)C[C@H]1Cc1c(-c2[nH]c3cc(F)ccc3c2C[C@@H]2C[C@H](O)CN2C(=O)[C@H](CC)NC(=O)[C@H](C)N(C)C(=O)OCCCCC)[nH]c2cc(F)ccc12 [Compound B]
degradation by in vivo esterases to release the active drug Birinapant [3]: have not been degraded at all; also recorded: could not be degraded by in vivo esterase at all

reduction of the maximum concentration of Birinapant in the plasma in comparison to direct use of Birinapant ([1]; iv): 94% | reduction of total drug exposure in the plasma in comparison to direct use of Birinapant ([1]; iv): 49% | total exposure of Birinapant released in liver relative to direct use of Birinapant ([1]; iv): 2.4 times | AUC Ratio (L/P) ([1]; iv, 5.97 mg/kg): 194
SMILES: CC[C@H](NC(=O)[C@H](C)NC)C(=O)N1C[C@@H](OC(C)=O)C[C@H]1Cc1c(-c2[nH]c3cc(F)ccc3c2C[C@@H]2C[C@H](OC(C)=O)CN2C(=O)[C@H](CC)NC(=O)[C@H](C)NC)[nH]c2cc(F)ccc12 [Compound I-5-S]
conversion of the prodrug into the active drug Birinapant [1]: metabolized into the active pharmaceutical ingredient Birinapant
